Results: patent US5932217A, “Peptides which inhibit adhesion between leukocytes and endothelial cells” (priority 1994, dated 1999)

Assays:
Human neutrophils = test: Binding of 125I-Factor X to neutrophils
Procedure: Human Factor X (Sigma or Hematologic Technologies Inc.) was labeled with ^125 I using Iodogen (Pierce Chemical Co.) Human neutrophils were isolated from heparinized blood according to the manufacturer's specification using Neutrophil Isolation Medium (Cardinal Associates, Santa Fe, N.M.) and washed three times with 5 mM EDTA-phosphate-buffered saline (PBS), pH 7.2, at 4° C. To eliminate platelet contamination,neutrophils were incubated with autologous serum containing 5 mM EDTA for 30 mins. at 37° C., washed three times with ice-cold PBS, pH 7.2, and resuspended in RPMI 1640 tissue culture medium (Whittaker M. A. Bioproducts, Walkersville, Md.) at 4° C. Binding of ^125 I-Factor X to neutrophils was measured based on a method described by Altieri et al. (1991) Science 254: 1200-1202. Briefly, 200 μl of neutrophils (1.5×10^7 /ml) were supplemented with 17.5 μl of 50 mM CaCl2, stimulated with 3.5 μl of 100 μM NH2 -formyl-Met-Leu-Phe (Sigma), and mixed with 30 μl of 10.3 μg/ml ^125 I-Factor X and 100 μl of 1.75 mM of peptide. Buffer alone and a peptide of scrambled sequence served as controls in each of the 3 experiments. After incubation for 20 mins. at room temperature, neutrophil-bound ^125 I-Factor X was separated from unbound ^125 I-Factor X by centrifugation of 300 μl aliquots through 50 μl of a mixture of Hi phenyl silicone oil DC 550 and methyl silicone oil DC 200 5:1 (Nye Inc. Specialty Lubricants, New Bedford, Mass.) at 12,000×g for 2 mins. Aliquots of the supernatant (cell free ^125 I-Factor X) and the cell pellet (cell bound ^125 I-Factor X) were counted in a gamma-counter. Nonspecific binding (~50,000 cpm) was determined by adding a 100 fold excess of unlabeled Factor X, and subtracted from total radioactivity (~500,000 cpm for controls).

[1] = system: rabbits challenged intracisternally with pneumococcus strain R6; test: Rabbit model for meningitis, intravenous FHA or peptides; assay type: in vivo; details: for Lactate / Protein: CSF at 6 hours
Procedure: The rabbit model was performed according to an established protocol. Specific pathogen free, New Zealand white rabbits (2 kg; Hare Marland, Nutley, N.J.) were anesthetized with valium (2.5 mg/kg, subcutaneously, Hoffman-LaRoche, Nutley, N.J.), ketamine (35 mg/kg, intramuscularly, Aveco, Fort Dodge, Iowa) and xylazine (5 mg/kg, intramuscularly, Miles Laboratories, Shawnee, Kans.) and a helmet of dental acrylic was affixed to the calvarium. Twenty four hours later, the rabbits were anesthetized with ethyl carbamate (1.75 g/kg; Aldrich Chemical Co., Milwaukee, Wis.) and pentobarbital (15 mg/kg; Abbott Laboratories, Abbott Park, Ill.) and placed in a stereotaxic frame. A spinal needle was introduced into the cisterna magna and 300 μl of CSF was withdrawn. The animals were challenged intracisternally with 10^8 heat killed, unencapsulated pneumococcus strain R6 introduced in 200 μl of saline (time 0). One hour later, animals were treated with peptides dissolved in 1 ml of saline by intravenous injection into the right marginal ear vein. The concentration of FHA was 0.1 μM and that of the FHA Ia, Factor X II, and scrambled FHA II peptides was 10 μM. For the acetyl-FHA II, acetyl/amide-FHA II, dimer of FHA II and trimer of FHA II peptides, the concentration was 10^-3 μM. The concentration of FHA II is given in the results section. Samples of CSF were withdrawn at hourly intervals after pneumococcal inoculation and leukocyte density was measured using a cell counter (Coulter Electronics Inc., Hialeah, Fla.). CSF samples were centrifuged at 10,000×g for 5 minutes and the supernatant was stored at -70° C. until assayed for protein concentration using the bicinchoninic acid method (BCA Kit, Pierce Chemical Co., Rockford Ill.) and for lactate concentration (Lactate Detection Kit, Sigma, St. Louis, Mo.). Statistically significant differences between treatments were determined by a one way analysis of variance test.
The anti-inflammatory effects of the administered peptides were assessed in the rabbit model for meningitis by the procedures described in Example 10. The animals received 1 ml of 1 uM peptide intravenously. In a slight departure from the protocol described in Example 10, samples of blood were drawn from the left marginal ear vein 30 minutes after the administration of the peptides to determine peripheral leukocyte concentrations.

[2] = system: Recognition of C3bi by 12.1F9; test: Peptide inhibition of recognition of C3bi by 12.1F9; assay type: binding
[3] = system: rats inoculated intracisternally with Haemophilus influenzae type b lipooligosaccharide; test: Rat meningitis model (H. influenzae LOS); assay type: in vivo; details: for Leukocytosis: Experiment #3, 600 nmol i.v., CSF 4 hours after LOS
Procedure: The experiments were performed according to established protocols (Wispelway et al., 1988, J. Clin. Invest., 82: 1339-1346). Purified Haemophilus influenzae type b strain DL42 lipooligosaccharide (LOS) was prepared for inoculation by sonication for 30 minutes, dilution to the desired concentration (20 ng/50 μl) in normal saline or PBS, and sonication for an additional 15 to 30 minutes just prior to use.
Briefly, anesthetized female Wistar rats were placed under a micromanipulator and inoculated intracisternally with a 25 gauge needle. After removal of 50 μl of CSF (without visible blood contamination), rats were inoculated intracisternally with 50 μl (20 ng) of LOS using a 1 ml syringe with a 25 gauge needle. Ten to fifteen minutes after inoculation with LOS, the rats were treated by intravenous administration of the test substance: a solution of an FHA peptide in PBS, a solution of a control peptide in PBS, or an equal volume of PBS alone.
Three hours after LOS inoculation, 5 μCi of ^125 I-radiolabelled albumin in 50 μl normal saline was administered intravenously. One hour later, CSF was collected via intracisternal puncture and blood samples were collected via intracardiac puncture. CSF leukocytosis was determined by manually counting white blood cells using a hemacytometer, and blood-brain barrier permeability was determined as the percent of radioactivity in whole blood that was present in the CSF. Blood samples were obtained immediately prior to inoculation, immediately prior to treatment, and at 4 hours post-inoculation for determination of peripheral white blood cell concentrations.

[4] = 50% rabbit plasma at 37° C.
Procedure: To determine the stability of the FHA II peptide, the unmodified or the acetylated-amidated peptide were incubated in 50% rabbit plasma at 37° C.

Filamentous hemagglutinin [native FHA]
inhibition of 125I-Factor X binding to neutrophils (Human neutrophils; peptides 0.5 mM, native FHA 0.3 μM, mAb IB4 100 μg/ml): 70±4%
IC50 (Human neutrophils; read-out: IC50 of inhibition of 125I-Factor X binding): 100 nM
Total protein in CSF ([1]; 6 hours after intracisternal inoculation of pneumococci): 1.70 ± 0.33 mg/mL
mean leukocyte concentration/μl CSF ([1]; 7 hours after challenge, 10^-3 μM i.v.): ineffective
mean leukocyte concentration/μl CSF ([1]; 7 hours after challenge, FHA 0.1 μM (25 μg per 2 kg), peptides 10 μM, i.v.): 2096±450 /μl CSF
mean leukocyte density/μl CSF ([1]; 7 hours after challenge, FHA 0.1 μM (25 μg/animal), peptides 1 ml of 1 uM i.v.): 2096±450 cells/μl CSF
Total protein in CSF ([1]; 7 hours after intracisternal inoculation of pneumococci): 1.86 ± 0.76 mg/mL
reduction of CSF leukocytosis ([1]; 7 hours, FHA 0.1 μM, peptides 10 μM): > 60%
Lactate ([1]; FHA 0.1 μM, peptides 10 μM): 25.0 ± 5.3 mg/100 ml
Protein ([1]; FHA 0.1 μM, peptides 10 μM): 1.3 ± 0.3 mg/ml CSF
anti-inflammatory activity at reduced concentration ([1]; concentrations reduced from 10 to 0.1 μM, FIG. 21): more potent anti-inflammatory activity than the corresponding Factor X peptide II
inflammation, numbers of leukocytes in the cerebrospinal fluid ([1]; intravenous, FIG. 5): decreases inflammation
block of binding of 12.1F9 to C3bi [2]: blocked binding almost completely
Adherence index ([2]; peptides 50 μg/ml, normalized to a control value of 100): 16 ± 16

Ac-ETKEVDG-NH2 [Acetyl/Amide-FHA II]
leukocytes/μl CSF ([1]; 6 hours post-pneumococcal challenge, 10 nmoles i.v.): 3011±684 cells/μl
Lactate ([1]; FHA 0.1 μM, peptides 10 μM): 24.3 ± 3.2 mg/100 ml
Protein ([1]; FHA 0.1 μM, peptides 10 μM): 1.2 ± 0.6 mg/ml CSF
BBB permeability ([3]; Experiment #3, 600 nmol): 6.00 ± 5.14%
Leukocytosis [3]: approximately 10,000 cells/ml
Leukocytosis ([3]; listed as ac/am FHA II): 10,500 ± 8523 cells/ml
neutropenia ([3]; peripheral white blood cells): No neutropenia was observed
Inhibition of blood-brain barrier permeability ([3]; rat, in vivo): not observed
concentration over time in plasma [4]: remained unchanged over 48 hours
